According to ChEMBL document CHEMBL1201862, “PubChem BioAssay data set” (2004):
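All cell lines were grown in 96-well plates and treated with compound for 48 hours. At the GI50, growth is halved.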 Activity calls are given as the source filed them. No stated cut-off is given here; in the data, active = GI50 up to about 1.1 µM and inactive = higher.

Legend:
Assay in all cases: NCI-60 cell line screen, 48 h
[1] = tested on: NCI-H460
[2] = tested on: T47D
[3] = tested on: SK-MEL-28
[4] = tested on: TK-10
[5] = tested on: PC-3
[6] = tested on: SK-OV-3
[7] = tested on: DU-145
[8] = tested on: KM12
[9] = tested on: SNB-19
[10] = tested on: Malme-3M
[11] = tested on: A498
[12] = tested on: U-251
[13] = tested on: 786-0
[14] = tested on: SK-MEL-5
[15] = tested on: NCI-H522
[16] = tested on: LOX IMVI
[17] = tested on: A549
[18] = tested on: RPMI-8226
[19] = tested on: HCT-116

SMILES | GI50 [1] | GI50 [2] | GI50 [3] | GI50 [4] | GI50 [5] | GI50 [6] | GI50 [7] | GI50 [8] | GI50 [9] | GI50 [10] | GI50 [11] | GI50 [12] | GI50 [13] | GI50 [14] | GI50 [15] | GI50 [16] | GI50 [17] | GI50 [18] | GI50 [19]
Nc1c(OCC(=O)O)ccc2cc(S(=O)(=O)O)ccc12 | > 100 µM (inactive) | > 100 µM (inactive) | > 100 µM (inactive) | > 100 µM (inactive) | > 100 µM (inactive) | > 100 µM (inactive) | > 100 µM (inactive) | > 100 µM (inactive) | > 100 µM (inactive) | > 100 µM (inactive) | > 100 µM (inactive) | > 100 µM (inactive) | > 100 µM (inactive) | > 100 µM (inactive) | > 100 µM (inactive) | > 100 µM (inactive) | > 100 µM (inactive) | > 100 µM (inactive) | > 100 µM (inactive)
O=C(NCc1ccc(Cl)c(Cl)c1)c1nc2ccccc2nc1NCc1ccc(Cl)c(Cl)c1 | > 100 µM (inactive) | > 100 µM (inactive) | > 100 µM (inactive) | > 100 µM (inactive) | > 100 µM (inactive) | – | > 100 µM (inactive) | > 100 µM (inactive) | > 100 µM (inactive) | – | > 100 µM (inactive) | > 100 µM (inactive) | > 100 µM (inactive) | > 100 µM (inactive) | > 100 µM (inactive) | > 100 µM (inactive) | > 100 µM (inactive) | – | > 100 µM (inactive)
C=C(C)C(=O)O[C@H]1CC2=CC(CC(C)=C[C@H]3OC(=O)C(=C)C13)OC2=O (stereo not given in full) | 31.1 µM (inactive) | 11.2 µM (inactive) | 14.1 µM (inactive) | 8.02 µM (inactive) | 23 µM (inactive) | – | 15.5 µM (inactive) | 20.3 µM (inactive) | > 100 µM (inactive) | 20.2 µM (inactive) | 35.8 µM (inactive) | > 100 µM (inactive) | 9.08 µM (inactive) | 68.2 µM (inactive) | 2.53 µM (inactive) | 21 µM (inactive) | > 100 µM (inactive) | 2.93 µM (inactive) | 10.8 µM (inactive)
COC(=O)[C@]12C3=C(O)C(=O)C[C@H]1OC[C@H]2C=CC3 | > 100 µM (inactive) | > 100 µM (inactive) | > 100 µM (inactive) | > 100 µM (inactive) | > 100 µM (inactive) | > 100 µM (inactive) | > 100 µM (inactive) | > 100 µM (inactive) | > 100 µM (inactive) | > 100 µM (inactive) | > 100 µM (inactive) | > 100 µM (inactive) | > 100 µM (inactive) | > 100 µM (inactive) | 20.1 µM (inactive) | > 100 µM (inactive) | > 100 µM (inactive) | > 100 µM (inactive) | > 10 µM (inactive)
COc1ccc2c(c1)C(N)=C(c1ccccc1OC)C2=O | > 100 µM (inactive) | > 100 µM (inactive) | > 100 µM (inactive) | > 100 µM (inactive) | 85.7 µM (inactive) | > 100 µM (inactive) | > 100 µM (inactive) | 76.6 µM (inactive) | > 100 µM (inactive) | > 100 µM (inactive) | > 100 µM (inactive) | > 100 µM (inactive) | > 100 µM (inactive) | – | – | > 100 µM (inactive) | – | > 100 µM (inactive) | > 100 µM (inactive)
COc1cc(C2SC(=N)Nc3c2c(C)nn3C(=O)c2ccccc2O)ccc1O (stereo not given) | 0.317 µM (active) | 0.971 µM (active) | > 10 µM (inactive) | > 2.96 µM (inactive) | > 4.03 µM (inactive) | > 2.17 µM (inactive) | 1.69 µM (inactive) | > 2.13 µM (inactive) | > 2.39 µM (inactive) | 0.513 µM (active) | 4.51 µM (inactive) | 1.74 µM (inactive) | > 2.33 µM (inactive) | 2.75 µM (inactive) | > 3.84 µM (inactive) | 1.47 µM (inactive) | 1.36 µM (inactive) | > 2.09 µM (inactive) | –
[O-][S+](CCCl)c1c2ccccc2nc2ccccc12 (stereo not given) | > 100 µM (inactive) | > 100 µM (inactive) | > 100 µM (inactive) | > 100 µM (inactive) | > 100 µM (inactive) | > 100 µM (inactive) | 22.9 µM (inactive) | 65.3 µM (inactive) | > 100 µM (inactive) | > 100 µM (inactive) | > 100 µM (inactive) | > 100 µM (inactive) | 50.2 µM (inactive) | – | 8.45 µM (inactive) | 79.4 µM (inactive) | > 100 µM (inactive) | – | 42.1 µM (inactive)
Cc1ccc(S(=O)(=O)OCC(=O)O)cc1 | > 100 µM (inactive) | > 100 µM (inactive) | > 100 µM (inactive) | > 100 µM (inactive) | > 100 µM (inactive) | – | > 100 µM (inactive) | – | > 100 µM (inactive) | > 100 µM (inactive) | > 100 µM (inactive) | > 100 µM (inactive) | > 100 µM (inactive) | > 100 µM (inactive) | > 100 µM (inactive) | > 100 µM (inactive) | > 100 µM (inactive) | > 100 µM (inactive) | > 100 µM (inactive)
